Measured values from PubChem BioAssay (NCI).
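How tested: cells in 96-well plates exposed to compound for 48 hours at five concentrations. GI50 marks 50% less growth. TGI marks complete inhibition of growth.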

How the values were obtained:
Assay in all cases: DTP human tumour cell line panel, 48 h
[1] = system: EKVX NSCLC
[2] = system: HCC-2998 colon
[3] = system: SK-MEL-5 melanoma
[4] = system: HCT-15 colon
[5] = system: MDA-MB-231 breast
[6] = system: CCRF-CEM leukemia
[7] = system: NCI-H23 lung
[8] = system: U251 CNS
[9] = system: 786-0 renal
[10] = system: MOLT-4 leukemia

Row | SMILES | TGI [1] [µM] | TGI [2] [µM] | TGI [3] [µM] | TGI [4] [µM] | TGI [5] [µM] | TGI [6] [µM] | TGI [7] [µM] | TGI [8] [µM] | TGI [9] [µM] | TGI [10] [µM] | GI50 [1] [µM] | GI50 [2] [µM] | GI50 [3] [µM] | GI50 [4] [µM] | GI50 [5] [µM] | GI50 [6] [µM] | GI50 [7] [µM] | GI50 [8] [µM] | GI50 [10] [µM]
1 | COc1ccc(C(SC2C(O)C(CO)OC2n2ccc(=O)[nH]c2=O)(c2ccccc2)c2ccc(OC)cc2)cc1 (stereo not drawn) | 41.8 | 30.3 | 29 | 33.3 | 31 | > 100 | 39.6 | 30 | 32 | > 100 | – | – | – | – | – | – | – | – | –
2 | CC(C)(C)n1c(=O)[nH]c(=O)n1C(C)(C)C | > 100 | > 100 | > 100 | > 100 | > 100 | > 100 | > 100 | > 100 | > 100 | > 100 | – | – | – | – | – | – | – | – | –
3 | CCOC(=O)c1cc(C)nc2c1c(=O)n(-c1ccccc1)c(=O)n2CCCCN1CCN(c2ccccc2)CC1 | > 100 | > 100 | > 100 | > 100 | > 100 | – | > 100 | > 100 | > 100 | > 100 | – | – | – | – | – | – | – | – | –
4 | CN(C)CCCNc1ccc2nnn3c4ccc(O)cc4c(=O)c1c23 | 25.3 | 15.2 | 19.7 | 19.7 | 23.6 | 38.2 | 18.3 | 18.7 | 16.9 | 9.3 | – | – | – | – | – | – | – | – | –
5 | c1ccc(/C(=N/Nc2ccncn2)c2ccccn2)cc1 | 50.3 | > 100 | > 100 | > 100 | > 100 | > 100 | 46.5 | > 100 | > 100 | 49.2 | – | – | – | – | – | – | – | – | –
6 | Cc1ccc(S(=O)(=O)Nn2c(O)c(C#N)c(-c3ccc(Cl)cc3)c(C#N)c2=O)cc1 | > 100 | > 100 | > 100 | > 100 | > 100 | > 100 | – | > 100 | > 100 | > 100 | – | – | – | – | – | – | – | – | –
7 | C=CC[n+]1c2ccccc2n2cc([N+](=O)[O-])ccc21 | > 100 | > 100 | 42 | > 100 | > 100 | 55.3 | 43 | > 100 | > 100 | 67.5 | – | – | – | – | – | – | – | – | –
8 | CC1(C)CC(=O)C2(CC(CSc3ccccc3)C(CS(=O)(=O)c3ccccc3)C2)C(=O)C1 (stereo not drawn) | > 100 | > 100 | > 100 | > 100 | > 100 | > 100 | > 100 | > 100 | > 100 | > 100 | – | – | – | – | – | – | – | – | –
9 | COc1ccc(OC)c(SC(CC(=O)c2ccccc2)c2ccccc2)c1 (stereo not drawn) | 31.1 | 31.6 | 28.7 | 35.4 | 25.7 | > 100 | 33.3 | 31 | 29.2 | > 100 | – | – | – | – | – | – | – | – | –
10 | O=C(O)COc1cc(-c2ccccc2)nc2cc(F)ccc12 | > 100 | > 100 | > 100 | > 100 | > 100 | > 100 | > 100 | > 100 | > 100 | > 100 | – | – | – | – | – | – | – | – | –
11 | O=[N+]([O-])c1cccc(N=Nc2c(O)c(S(=O)(=O)O)cc3cc(S(=O)(=O)O)ccc23)c1 | > 100 | > 100 | > 100 | > 100 | > 100 | > 100 | > 100 | > 100 | > 100 | > 100 | – | – | – | – | – | – | – | – | –
12 | O=C1c2c(O)cccc2-c2nn(CCNCCO)c3ccc(NCCNCCO)c1c23 | 4.8 | 1 | 1.13 | 70.5 | 2.51 | 0.0631 | 0.592 | 0.195 | 0.895 | 0.086 | – | – | – | – | – | – | – | – | –
13 | C/C(=N\Nc1nc2cc(C(F)(F)F)ccc2s1)c1ccccn1 | 5.55 | 18.3 | 12.1 | > 38.9 | 0.791 | > 100 | 6.74 | – | 5.5 | – | – | – | – | – | – | – | – | – | –
14 | O=c1oc(C(C(F)(F)F)C(F)(F)F)nc2ccccc12 | > 100 | > 100 | > 100 | > 100 | > 100 | > 100 | > 100 | > 100 | > 100 | > 100 | – | – | – | – | – | – | – | – | –
15 | Cc1nc(N)c(N2CCN(CN)CC2)c(=O)[nH]1 | > 100 | > 100 | – | > 100 | > 100 | > 100 | > 100 | > 100 | > 100 | > 100 | – | – | – | – | – | – | – | – | –
16 | CC(C)(C)CC(C)(C)c1cc(O)c(O)c(CN2CCCCC2)c1 | 26.4 | 22.4 | 28.9 | 15.9 | 32.6 | – | 29.6 | 24.3 | 26.7 | 16.4 | – | – | – | – | – | – | – | – | –

Row | SMILES | TGI [1] [µM] | TGI [2] [µM] | TGI [3] [µM] | TGI [4] [µM] | TGI [5] [µM] | TGI [6] [µM] | TGI [7] [µM] | TGI [8] [µM] | TGI [9] [µM] | TGI [10] [µM] | GI50 [1] [µM] | GI50 [2] [µM] | GI50 [3] [µM] | GI50 [4] [µM] | GI50 [5] [µM] | GI50 [6] [µM] | GI50 [7] [µM] | GI50 [8] [µM] | GI50 [10] [µM]
17 | COc1cnc2c(c1)C(=O)c1c-2n(CCCNCCO)c(=O)c2ccncc12 | 9.27 | 4.19 | 3.38 | 13.7 | 10.9 | 12.5 | 6.91 | 19.4 | – | 10.2 | 2.29 | 1.58 | 1.43 | 2.3 | 1.95 | 0.626 | 1.65 | 0.708 | 0.405
18 | O=C1OC[C@H]2[C@@H]1[C@H]1O[C@@H]2C2=C(CCC2)C1=O | > 100 | > 100 | > 100 | > 100 | > 100 | > 100 | > 100 | > 100 | > 100 | – | – | – | – | – | – | – | – | – | –
19 | COc1ccc(-c2oc3cc(O)cc(O)c3c(=O)c2OC)cc1 | > 100 | 62.9 | 43.5 | > 100 | > 100 | > 100 | – | 52.1 | – | 87.9 | – | – | – | – | – | – | – | – | –
20 | O=C(Cc1ccc(Cl)c(Cl)c1)NCC1(N2CCCCC2)CCCCC1 | > 100 | 39.1 | – | > 100 | > 100 | > 100 | > 100 | > 100 | > 100 | > 100 | – | – | – | – | – | – | – | – | –
21 | Cc1cc2c([nH]c3ccccc32)c(O)c1-c1c(C)cc2c([nH]c3ccccc32)c1O | 27.7 | 22.4 | 30.1 | 23.8 | 33 | – | 26.8 | 23.7 | 26.6 | 16.3 | – | – | 16.5 | 10.1 | – | – | 12.4 | – | 3.62
22 | C/C(=N\NC(=S)N(C)C)c1cccnn1 | 10.4 | > 100 | > 20.7 | > 100 | > 100 | – | > 28.2 | > 100 | > 100 | 3.08 | – | – | – | – | – | – | – | – | –
23 | CN(C)CCn1c(CO)nc2c1c(=O)n(C)c(=O)n2C | > 100 | > 100 | > 100 | > 100 | > 100 | > 100 | > 100 | > 100 | > 100 | – | – | – | – | – | – | – | – | – | –
24 | C/C(=N\Nc1nc2ccccc2n1C)c1cc2ccccc2cn1 | 5 | 41.9 | 12.4 | 20.7 | 3.21 | > 54.3 | 7.4 | 4.59 | 3.82 | – | – | – | – | – | – | – | – | – | –
25 | CC(=O)NC1C(OCc2ccccc2)OC(CO)C(O)C1OC(C)C(=O)NC(C(=O)NC(CCC(=O)NCCCCNc1c2ccccc2nc2cccc([N+](=O)[O-])c12)C(N)=O)C(C)C (stereo not drawn) | 10.1 | 3.47 | 7.39 | 40.2 | 25.5 | – | 4.75 | > 56.7 | 5.45 | 26.8 | – | – | – | – | – | – | – | – | –
26 | Cn1c(-c2ccc(/C=N/NC(=S)N/N=C/c3ccc(-c4c[n+]5ccsc5n4C)cc3)cc2)c[n+]2ccsc12 | > 100 | > 100 | > 100 | > 100 | > 100 | > 100 | – | > 100 | > 100 | > 100 | – | – | – | – | – | – | – | – | –
27 | COc1ccc2cc(CNCCCCCCNCc3ccc4cc(OC)ccc4c3)ccc2c1 | 2.74 | 0.277 | 2.67 | 1.39 | 1.38 | – | 3.8 | 0.601 | 2.48 | – | – | – | – | – | – | – | – | – | –
28 | COc1ccc2[nH]c(O)c(/C=c3/cc4c(c(-c5ccc(F)c(OC)c5)n3)=Nc3ccccc3-4)c2c1 | 36 | 4.62 | 22 | 5.63 | 3.14 | 9.88 | 38.2 | 3.21 | – | 5.68 | 8.71 | 2.13 | 3.07 | 2.36 | 1.47 | 2.13 | 4.68 | 1.7 | 2.3
29 | Cn1c(=O)oc2nc(-c3ccccc3)cc(C(F)(F)F)c21 | > 100 | > 100 | > 100 | > 100 | > 100 | – | > 100 | > 100 | > 100 | > 100 | – | – | – | – | – | – | – | – | –
30 | Cc1ccc(S(=O)(=O)Nc2nnc(S(N)(=O)=O)s2)cc1 | > 100 | > 100 | > 100 | > 100 | > 100 | – | > 100 | > 100 | > 100 | > 100 | – | – | – | – | – | – | – | – | –
31 | CCN(CC)C(=S)SS(=O)(=O)c1cccc(N)c1 | > 100 | > 100 | > 100 | > 100 | > 100 | – | > 100 | > 100 | > 100 | > 100 | – | – | – | – | – | – | – | – | –
32 | Nc1nc(Cl)cc(NC23CC4CC(CC(C4)C2)C3)n1 | > 100 | > 100 | – | > 100 | > 100 | > 100 | > 100 | > 100 | > 100 | > 100 | – | – | – | – | – | – | – | – | –
